# Reference: ChEMBL document CHEMBL4364276, “Discovery of 4-phenyl-2H-benzo[b][1,4]oxazin-3(4H)-one derivatives as potent and orally active PI3K/mTOR dual inhibitors” (Eur J Med Chem, 2019)
# Tests used:
# PC-12 = assay: Cytotoxicity against rat PC12 cells assessed as reduction in cell viability at 0.625 to 20 uM incubated for 72 hrs by MTT assay; type: cell-based; conditions: pc-12, 72 h
# [1] = Inhibition of PI3K/Akt/mTOR signaling in human HeLa cells assessed as reduction in AKT 473 phosphorylation incubated for 24 hrs by Western blot analysis; type: cell-based
# [2] = Toxicity in BALB/c mouse xenografted with human A549 cells assessed as reduction in body weight at 20 to 40 mg/kg, ig administered for 30 days; type: organism-based; conditions: in vivo, po, 720 h
# [3] = target: Serine/threonine-protein kinase A-Raf (Homo sapiens) (UniProt P10398); assay: Inhibition of human ARAF at 100 nM using MEK1 as substrate by [gamma-33P]-ATP assay
# Chain of Serine/threonine-protein kinase A-Raf (Homo sapiens) (P10398 whole entry): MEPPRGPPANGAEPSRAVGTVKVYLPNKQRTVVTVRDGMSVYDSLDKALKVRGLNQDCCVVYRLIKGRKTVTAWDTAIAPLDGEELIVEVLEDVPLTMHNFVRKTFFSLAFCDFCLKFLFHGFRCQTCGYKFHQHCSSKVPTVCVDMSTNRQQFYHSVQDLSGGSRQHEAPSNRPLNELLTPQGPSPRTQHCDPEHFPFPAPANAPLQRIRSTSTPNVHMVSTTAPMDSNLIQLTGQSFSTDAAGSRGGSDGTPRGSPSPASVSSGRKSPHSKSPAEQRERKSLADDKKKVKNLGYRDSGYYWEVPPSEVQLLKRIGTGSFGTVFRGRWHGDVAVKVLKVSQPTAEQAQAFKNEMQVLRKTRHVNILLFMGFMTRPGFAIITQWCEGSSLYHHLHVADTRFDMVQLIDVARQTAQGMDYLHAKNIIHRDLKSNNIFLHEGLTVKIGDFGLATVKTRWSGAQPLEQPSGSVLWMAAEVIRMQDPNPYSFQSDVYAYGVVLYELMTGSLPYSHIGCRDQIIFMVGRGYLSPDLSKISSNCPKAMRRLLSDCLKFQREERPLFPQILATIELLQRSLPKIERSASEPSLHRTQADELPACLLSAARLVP
# [4] = target: Aurora kinase A (Homo sapiens) (UniProt O14965); assay: Inhibition of human Aurora A at 100 nM using [H-LRRASLG] as substrate by [gamma-33P]-ATP assay
# Chain of Aurora kinase A (Homo sapiens) (O14965 whole entry): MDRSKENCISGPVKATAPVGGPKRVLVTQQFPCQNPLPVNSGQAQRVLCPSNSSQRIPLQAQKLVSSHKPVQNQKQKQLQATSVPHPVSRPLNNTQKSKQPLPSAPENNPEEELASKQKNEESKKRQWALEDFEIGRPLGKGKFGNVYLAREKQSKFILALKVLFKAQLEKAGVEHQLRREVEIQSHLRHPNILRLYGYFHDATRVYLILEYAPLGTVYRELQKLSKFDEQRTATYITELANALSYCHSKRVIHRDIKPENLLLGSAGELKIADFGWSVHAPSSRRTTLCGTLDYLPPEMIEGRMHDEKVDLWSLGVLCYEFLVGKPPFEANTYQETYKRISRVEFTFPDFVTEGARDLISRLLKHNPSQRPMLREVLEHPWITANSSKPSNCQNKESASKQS
# [5] = target: Aurora kinase B (Homo sapiens) (UniProt Q96GD4); assay: Inhibition of human Aurora B at 100 nM using [H-LRRASLG] as substrate by [gamma-33P]-ATP assay
# [6] = target: Serine/threonine-protein kinase BRSK2 (Homo sapiens) (UniProt Q8IWQ3); assay: Inhibition of human BRSK2 at 100 nM using KKLNRTLSFAEPG as substrate by [gamma-33P]-ATP assay
# Chain of Serine/threonine-protein kinase BRSK2 (Homo sapiens) (Q8IWQ3 whole entry): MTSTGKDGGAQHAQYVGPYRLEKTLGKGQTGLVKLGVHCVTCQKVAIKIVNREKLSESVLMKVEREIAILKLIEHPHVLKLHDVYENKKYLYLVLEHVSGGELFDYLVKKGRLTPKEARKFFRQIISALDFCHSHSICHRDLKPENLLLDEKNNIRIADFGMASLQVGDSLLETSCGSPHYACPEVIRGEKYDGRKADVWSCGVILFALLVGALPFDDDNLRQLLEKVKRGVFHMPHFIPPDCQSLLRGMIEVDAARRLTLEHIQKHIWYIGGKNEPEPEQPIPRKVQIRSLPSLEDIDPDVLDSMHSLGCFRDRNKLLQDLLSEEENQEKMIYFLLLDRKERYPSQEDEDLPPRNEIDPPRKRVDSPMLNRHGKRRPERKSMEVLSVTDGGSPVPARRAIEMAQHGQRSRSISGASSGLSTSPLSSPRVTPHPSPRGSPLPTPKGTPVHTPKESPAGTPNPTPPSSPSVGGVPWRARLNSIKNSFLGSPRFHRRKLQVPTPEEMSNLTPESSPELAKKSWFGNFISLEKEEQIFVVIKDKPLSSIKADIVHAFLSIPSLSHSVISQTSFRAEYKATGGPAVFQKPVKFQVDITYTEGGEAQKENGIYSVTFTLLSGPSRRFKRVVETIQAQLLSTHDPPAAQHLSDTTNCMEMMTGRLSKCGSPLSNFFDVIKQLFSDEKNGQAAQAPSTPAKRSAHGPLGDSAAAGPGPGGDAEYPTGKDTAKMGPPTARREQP
# [7] = target: Proto-oncogene tyrosine-protein kinase Src (Homo sapiens) (UniProt P12931); assay: Inhibition of human c-SRC at 100 nM using poly[Glu:Tyr] (4:1) as substrate by [gamma-33P]-ATP assay
# [8] = target: Calcium/calmodulin-dependent protein kinase kinase 2 (Homo sapiens) (UniProt Q96RR4); assay: Inhibition of human CAMKK2 at 100 nM using MBP as substrate by [gamma-33P]-ATP assay
# [9] = target: CDC7/DBF4 (Cell division cycle 7-related protein kinase/Activator of S phase kinase) (Homo sapiens) (UniProt Q9UBU7+O00311); assay: Inhibition of human CDC7/DBF4 at 100 nM using KTFCGTPEYLAPEVRREPRILSEEEQEMFRDFDYIADWC as substrate by [gamma-33P]-ATP assay; type: protein-complex assay
# [10] = target: CDK2/Cyclin O (Homo sapiens) (UniProt P24941+P22674); assay: Inhibition of human CDK2/cyclin-O at 100 nM using histone H1 as substrate by [gamma-33P]-ATP assay; type: protein-complex assay
# [11] = target: Cyclin-dependent kinase 4/cyclin D1 (Homo sapiens) (UniProt P11802+P24385); assay: Inhibition of human CDK4/cyclin-D1 at 100 nM using RB protein as substrate by [gamma-33P]-ATP assay; type: protein-complex assay
# [12] = target: Ephrin type-A receptor 1 (Homo sapiens) (UniProt P21709); assay: Inhibition of human EPHA1 at 100 nM using poly[Glu:Tyr] (4:1) as substrate by [gamma-33P]-ATP assay
# Chain of Ephrin type-A receptor 1 (Homo sapiens) (P21709 whole entry): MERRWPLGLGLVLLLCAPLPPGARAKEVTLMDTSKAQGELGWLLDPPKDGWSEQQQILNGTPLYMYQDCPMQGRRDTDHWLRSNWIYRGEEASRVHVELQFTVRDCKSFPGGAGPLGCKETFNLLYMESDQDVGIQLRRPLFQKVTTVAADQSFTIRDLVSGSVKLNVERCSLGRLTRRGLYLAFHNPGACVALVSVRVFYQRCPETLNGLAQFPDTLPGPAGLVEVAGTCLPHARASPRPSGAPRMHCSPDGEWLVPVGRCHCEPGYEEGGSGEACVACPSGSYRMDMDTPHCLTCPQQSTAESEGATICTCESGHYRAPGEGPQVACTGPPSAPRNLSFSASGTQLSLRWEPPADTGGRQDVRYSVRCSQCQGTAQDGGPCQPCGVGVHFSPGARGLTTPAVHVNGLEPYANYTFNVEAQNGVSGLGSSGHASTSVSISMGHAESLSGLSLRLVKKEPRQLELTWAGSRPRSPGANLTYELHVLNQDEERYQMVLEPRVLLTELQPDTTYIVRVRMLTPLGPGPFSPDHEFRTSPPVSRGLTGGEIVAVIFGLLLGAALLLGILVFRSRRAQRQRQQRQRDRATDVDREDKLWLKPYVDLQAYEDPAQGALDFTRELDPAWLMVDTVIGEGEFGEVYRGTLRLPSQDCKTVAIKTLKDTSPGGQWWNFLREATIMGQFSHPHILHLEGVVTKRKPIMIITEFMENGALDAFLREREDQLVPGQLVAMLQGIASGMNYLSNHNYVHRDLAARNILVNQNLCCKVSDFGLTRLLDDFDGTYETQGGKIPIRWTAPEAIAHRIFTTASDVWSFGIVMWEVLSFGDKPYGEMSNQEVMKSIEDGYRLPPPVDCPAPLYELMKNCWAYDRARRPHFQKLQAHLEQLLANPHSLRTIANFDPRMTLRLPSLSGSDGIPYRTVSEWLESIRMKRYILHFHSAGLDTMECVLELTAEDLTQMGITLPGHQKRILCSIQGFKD
# [13] = target: Dual specificity mitogen-activated protein kinase kinase 3 (Homo sapiens) (UniProt P46734); assay: Inhibition of human MEK3 at 100 nM using p38alpha as substrate by [gamma-33P]-ATP assay
# Chain of Dual specificity mitogen-activated protein kinase kinase 3 (Homo sapiens) (P46734 whole entry): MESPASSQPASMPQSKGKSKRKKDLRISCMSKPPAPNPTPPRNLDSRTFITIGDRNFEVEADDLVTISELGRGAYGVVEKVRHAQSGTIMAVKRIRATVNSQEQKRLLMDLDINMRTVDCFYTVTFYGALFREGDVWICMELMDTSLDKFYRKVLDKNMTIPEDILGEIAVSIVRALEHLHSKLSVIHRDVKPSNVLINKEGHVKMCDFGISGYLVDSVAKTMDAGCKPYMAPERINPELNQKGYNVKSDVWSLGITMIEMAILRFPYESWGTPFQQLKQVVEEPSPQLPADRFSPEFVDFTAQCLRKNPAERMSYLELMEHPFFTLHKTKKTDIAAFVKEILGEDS
# [14] = target: Maternal embryonic leucine zipper kinase (Homo sapiens) (UniProt Q14680); assay: Inhibition of human MELK at 100 nM using KKLNRTLSFAEPG as substrate by [gamma-33P]-ATP assay
# Chain of Maternal embryonic leucine zipper kinase (Homo sapiens) (Q14680 whole entry, looked up): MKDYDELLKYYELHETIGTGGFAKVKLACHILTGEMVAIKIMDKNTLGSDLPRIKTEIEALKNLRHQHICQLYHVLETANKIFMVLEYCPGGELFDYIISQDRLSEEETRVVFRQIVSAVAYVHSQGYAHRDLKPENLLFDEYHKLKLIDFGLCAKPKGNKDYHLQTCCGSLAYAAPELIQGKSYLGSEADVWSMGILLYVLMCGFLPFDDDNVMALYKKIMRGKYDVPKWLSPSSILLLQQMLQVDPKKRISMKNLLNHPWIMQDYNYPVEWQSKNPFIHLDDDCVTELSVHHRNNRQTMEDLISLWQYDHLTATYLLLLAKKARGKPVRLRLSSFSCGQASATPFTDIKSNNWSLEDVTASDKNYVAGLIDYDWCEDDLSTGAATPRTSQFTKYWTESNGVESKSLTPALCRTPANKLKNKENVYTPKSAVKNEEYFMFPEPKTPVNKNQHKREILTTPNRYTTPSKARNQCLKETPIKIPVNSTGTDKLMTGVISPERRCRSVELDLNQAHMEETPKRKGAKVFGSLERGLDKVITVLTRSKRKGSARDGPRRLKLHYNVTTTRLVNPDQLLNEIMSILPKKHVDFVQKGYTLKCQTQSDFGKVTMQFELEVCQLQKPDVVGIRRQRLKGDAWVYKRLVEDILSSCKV
# [15] = target: Myosin light chain kinase 2, skeletal/cardiac muscle (Homo sapiens) (UniProt Q9H1R3); assay: Inhibition of human MLCK2 at 100 nM using KKLNRTLSFAEPG as substrate by [gamma-33P]-ATP assay
# [16] = target: SRSF protein kinase 3 (Homo sapiens) (UniProt Q9UPE1); assay: Inhibition of human MSSK1 at 100 nM using GRSRSRSRSR as substrate by [gamma-33P]-ATP assay
# [17] = target: Serine/threonine-protein kinase Nek8 (Homo sapiens) (UniProt Q86SG6); assay: Inhibition of human NEK8 at 100 nM using casein as substrate by [gamma-33P]-ATP assay
# [18] = target: Serine/threonine-protein kinase PAK 1 (Homo sapiens) (UniProt Q13153); assay: Inhibition of human PAK1 at 100 nM using RRRLSFAEPG as substrate by [gamma-33P]-ATP assay
# [19] = target: Serine/threonine-protein kinase D2 (Homo sapiens) (UniProt Q9BZL6); assay: Inhibition of human PKD2 at 100 nM using KKLNRTLSVA as substrate by [gamma-33P]-ATP assay
# [20] = target: Membrane-associated tyrosine- and threonine-specific cdc2-inhibitory kinase (Homo sapiens) (UniProt Q99640); assay: Inhibition of human PKMYT1 at 100 nM using MBP as substrate by [gamma-33P]-ATP assay
# Chain of Membrane-associated tyrosine- and threonine-specific cdc2-inhibitory kinase (Homo sapiens) (Q99640 whole entry): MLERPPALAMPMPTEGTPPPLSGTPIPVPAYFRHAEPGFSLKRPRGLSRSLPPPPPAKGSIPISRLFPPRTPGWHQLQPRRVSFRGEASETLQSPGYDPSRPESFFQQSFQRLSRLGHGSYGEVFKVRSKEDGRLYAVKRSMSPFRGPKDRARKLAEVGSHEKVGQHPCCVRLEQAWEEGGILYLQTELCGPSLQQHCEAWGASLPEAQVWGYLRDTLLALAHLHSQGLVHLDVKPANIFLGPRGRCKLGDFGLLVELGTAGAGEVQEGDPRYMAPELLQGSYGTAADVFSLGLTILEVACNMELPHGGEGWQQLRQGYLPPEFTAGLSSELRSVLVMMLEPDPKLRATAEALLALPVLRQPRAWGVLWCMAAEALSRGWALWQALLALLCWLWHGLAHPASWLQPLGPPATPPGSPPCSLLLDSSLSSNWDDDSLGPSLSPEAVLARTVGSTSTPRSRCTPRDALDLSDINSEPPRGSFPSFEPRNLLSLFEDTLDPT
# [21] = target: Serine/threonine-protein kinase PLK4 (Homo sapiens) (UniProt O00444); assay: Inhibition of human PLK4 at 100 nM using casein as substrate by [gamma-33P]-ATP assay
# [22] = target: Ribosomal protein S6 kinase alpha-3 (Homo sapiens) (UniProt P51812); assay: Inhibition of human RSK2 at 100 nM using KKLNRTLSVA as substrate by [gamma-33P]-ATP assay
# Chain of Ribosomal protein S6 kinase alpha-3 (Homo sapiens) (P51812 whole entry): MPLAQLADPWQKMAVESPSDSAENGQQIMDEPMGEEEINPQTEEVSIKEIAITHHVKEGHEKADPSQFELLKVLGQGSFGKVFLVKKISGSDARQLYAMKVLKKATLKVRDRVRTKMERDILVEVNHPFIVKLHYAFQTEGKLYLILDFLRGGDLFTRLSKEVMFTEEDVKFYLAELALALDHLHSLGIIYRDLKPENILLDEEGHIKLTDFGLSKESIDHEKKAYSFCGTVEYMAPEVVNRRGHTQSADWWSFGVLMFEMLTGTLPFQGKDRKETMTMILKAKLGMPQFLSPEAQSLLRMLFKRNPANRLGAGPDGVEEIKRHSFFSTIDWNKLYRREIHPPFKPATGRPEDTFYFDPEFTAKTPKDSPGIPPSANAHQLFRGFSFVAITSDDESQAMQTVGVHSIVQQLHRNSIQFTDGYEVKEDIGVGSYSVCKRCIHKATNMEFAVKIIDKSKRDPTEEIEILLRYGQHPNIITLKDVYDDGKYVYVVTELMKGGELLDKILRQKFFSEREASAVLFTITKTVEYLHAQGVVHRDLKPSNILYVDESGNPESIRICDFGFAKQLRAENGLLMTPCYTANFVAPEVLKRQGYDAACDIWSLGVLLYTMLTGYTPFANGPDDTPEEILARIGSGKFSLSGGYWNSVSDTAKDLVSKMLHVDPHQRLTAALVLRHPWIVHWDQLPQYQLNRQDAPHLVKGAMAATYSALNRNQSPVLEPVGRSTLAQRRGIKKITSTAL
# [23] = target: NUAK family SNF1-like kinase 2 (Homo sapiens) (UniProt Q9H093); assay: Inhibition of human SNARK at 100 nM using KKKVSRSGLYRSPSMPENLNRPR as substrate by [gamma-33P]-ATP assay
# [24] = target: Serine/threonine-protein kinase 38 (Homo sapiens) (UniProt Q15208); assay: Inhibition of human STK38 at 100 nM using KKRNRRLSVA as substrate by [gamma-33P]-ATP assay
# [25] = target: STE20/SPS1-related proline-alanine-rich protein kinase (Homo sapiens) (UniProt Q9UEW8); assay: Inhibition of human STK39 at 100 nM using MBP as substrate by [gamma-33P]-ATP assay
# [26] = target: Tyrosine-protein kinase TXK (Homo sapiens) (UniProt P42681); assay: Inhibition of human TXK at 100 nM using EAIYAAPFAKKK as substrate by [gamma-33P]-ATP assay
# [27] = target: Tyrosine-protein kinase receptor TYRO3 (Homo sapiens) (UniProt Q06418); assay: Inhibition of human TYRO3 at 100 nM using poly[Glu:Tyr] (4:1) as substrate by [gamma-33P]-ATP assay
# Homo sapiens = species on record: Homo sapiens; assay: Inhibition of human AMPK (A2/B2/G2) at 100 nM using HMRSAMSGLHLVKRR as substrate by [gamma-33P]-ATP assay
# [28] = target: Transient receptor potential cation channel subfamily M member 7 (Homo sapiens) (UniProt Q96QT4); assay: Inhibition of human TRPM7 at 100 nM using MBP as substrate by [gamma-33P]-ATP assay
# HepG2 = assay: cells; conditions: Homo sapiens, HepG2, 72 h
compound,measurement,setting,value
COc1ccc(N2C(=O)COc3ccc(-c4cnc(OC)c(NS(=O)(=O)c5ccc(F)cc5)c4)cc32)cc1,Activity,PC-12,Non-Toxic
same,inhibition,[1],Dose-dependent effect
same,Activity,[2],Non-Toxic
same,inhibition,[3],0.31%
same,inhibition,[4],3.17%
same,inhibition,[5],-2.21%
same,inhibition,[6],-1.64%
same,inhibition,[7],6.76%
same,inhibition,[8],13.7%
same,inhibition,[9],8.12%
same,inhibition,[10],0.23%
same,inhibition,[11],0.16%
same,inhibition,[12],4.93%
same,inhibition,[13],1.4%
same,inhibition,[14],9.78%
same,inhibition,[15],0.61%
same,inhibition,[16],8.87%
same,inhibition,[17],14.4%
same,inhibition,[18],7.71%
same,inhibition,[19],-3.61%
same,inhibition,[20],14%
same,inhibition,[21],-1.06%
same,inhibition,[22],19.6%
same,inhibition,[23],4.8%
same,inhibition,[24],4.17%
same,inhibition,[25],10%
same,inhibition,[26],9.62%
same,inhibition,[27],3.03%
same,inhibition,Homo sapiens,-8.51%
same,inhibition,[28],1.61%
same,IC50,HepG2,13.1 µM
